Measurements: US20040001791A1, “Composition, method of use, and devices for the treatment of onychomycosis” (priority 2000, published 2004)
Entries after “also recorded” stand apart in the source; their conditions may differ.

How the values were obtained:
[1] = tested on: fungal infected fingernail (onychomycosis); assay: Topical treatment of a fungal infected fingernail in a patient; assay type: in vivo, human
Excerpt: The copper sulfate solution was applied to their fingernails for approximately thirty minutes and then allowed to air dry. Excess copper sulfate powder was removed by washing two-three times with water. […] Monthly, the copper sulfate solution was applied as given above to the infected fingernail and to all fingernails on the same hand.
The bandage was applied to the infected nail and secured in place. Care was given to ensure that the solution soaked into the crevice along the edge of the nail bed and cuticle. […] The bandage was worn for two days and then replaced with a clean dry bandage to protect the nail from snagging. The treatment was repeated on Day 31 and again on Day 45; no further treatments were given.

fungal infected toe nail = assay: Topical treatment of a fungal infected toe nail in a patient; assay type: in vivo, human; conditions: aqueous 10% (w/v) solution applied approximately thirty minutes, air dried, washed with water, Example 2 repeated monthly
Excerpt: As the treated nail grew, healthy nail tissue appeared at the base of the nail bed while the infected portion of the nail was pushed off the nail bed and periodically trimmed away. […] A patient diagnosed as having a fungal infected toe nail began treatment by applying with a cotton swab an aqueous 10% (w/v) copper(II)sulfate pentahydrate solution to the infected nail as well as to all nails on the same foot. […] As the treated nail grew, healthy nail tissue appeared at the base of the nail bed while the infected portion of the nail was pushed off the nail bed and periodically trimmed away. […] The infected portion of the patient's nail continued to have a bluish color.

Compound | Nail examination after treatment ([1]; person, right index fingernail, 10% aqueous solution with trace of detergent on bandage worn two days, Day 1, 31, 45, examined Day 132) | Outcome of fingernail treatment (spread of fungal infection, nail condition) ([1]; patient, aqueous 10% (w/v) solution applied approximately thirty minutes, washed, repeated monthly) | Outcome of toe nail treatment (spread of fungal infection, nail condition) (fungal infected toe nail)
O=S(=O)([O-])[O-].[Cu+2] [copper sulfate] | New pink nail growth was present from the cuticle to a point midway along the nail | – | –
O.O.O.O.O.O=S(=O)([O-])[O-].[Cu+2] [copper(II)sulfate pentahydrate] | – | resulting in a normal healthy nail | the fungal infection did not spread to healthy nail tissue; also recorded: resulting in a normal healthy nail
